Data as given in patent publication US8680120B2, “Indole derivative or pharmaceutically acceptable salt thereof” (Kissei Pharmaceutical Co., Ltd., priority 2009, dated 2014).

Experiments:
Female SD rats = assay: Inhibitory effect of compound on sulprostone-induced bladder contraction; format: in vivo, rat; conditions: sulprostone 0.3 mg/kg subcutaneously, urethane-anesthetized female SD rats; for Bladder Contraction Inhibition Rate (%) 15 Minutes: 15 minutes after test agent 1.0 mg/kg intravenously; for Bladder Contraction Inhibition Rate (%) 60 Minutes: 60 minutes after test agent 1.0 mg/kg intravenously
Procedure: Female SD rats were used. Under urethane anesthesia (1.25 g/kg, administered subcutaneously), a tracheal cannula (Size 8, HIBIKI) and a femoral vein cannula for administration (23 G needle-equipped PE50) were inserted thereinto. The bladder cannula (PE50) was inserted from the bladder apex. The bladder cannula was connected to a three-way stopcock, and then, one was connected to a pressure transducer and the other was connected to a syringe filled with saline. Saline was injected to the bladder at an injection rate of 3.6 mL/hour and the bladder contraction pressure was recorded at the time of injection with a recorder (RECTI-HORITZ-8K, NEC Corporation). After 10 minutes from stabilization of the bladder contraction pressure during urination, sulprostone was administered subcutaneously (0.3 mg/kg). Then, at the time point when the bladder contraction pressure became constant, a test agent was administered intravenously (1.0 mg/kg). An average bladder contraction pressure during the 10 minutes period before administration of sulprostone was taken as a baseline (0%). Further, an average bladder contraction pressure during the 10 minutes period before administration of the test agent was taken as a maximum bladder contraction pressure (100%). The average bladder contraction pressures were measured during 5 minutes before and after at 15 minutes and 60 minutes from administration of the test agent. The ratio of this measured value to the maximum bladder contraction pressure was calculated by the following equation and taken as an average bladder contraction rate after administration of the test agent: (Average Bladder Contraction Rate after Administration of Test Agent (%))=(Average Bladder Contraction Pressure after Administration of Test Agent)/(Maximum Bladder Contraction Pressure). In addition, the difference between the maximum bladder contraction rate (100%) and the average bladder contraction rate (%) after administration of the test agent was calculated by the following equation and taken as a bladder contraction inhibition rate of the test agent: (Bladder Contraction Inhibition Rate)=100%−(Average Bladder Contraction Rate after Administration of Test Agent (%)).

rat EP1 receptor = rat EP1 receptor (Rattus norvegicus (Rat), UniProt P70597); assay: Test for confirmation of EP1 receptor antagonism: inhibition of the prostaglandin E2-induced increase in intracellular calcium concentration in rat EP1 receptor-expressing COS-1 cells; format: cell-based; conditions: Method A: Fluo-4 NW Calcium Assay Kit, FlexStation; prostaglandin E2 10 nM; rat EP1 receptor-expressing COS-1 cells
Procedure: (1) Preparation of Rat EP1 Expression Vector
Using Rat Kidney BD Marathon-Ready cDNA (Nippon Becton Dickinson Company, Ltd.) as a template, a forward primer shown in SEQ ID NO. 1, and a reverse primer shown in SEQ ID NO. 2, a first run of PCR was carried out using KOD-Plus-Ver 2.0 (Toyobo Co., Ltd.). Further, using this amplification product as a template, a forward primer shown in SEQ ID NO. 3, and a reverse primer shown in SEQ ID NO. 4, a second run of PCR was carried out in the same manner. The amplification product obtained by the second run of PCR was incorporated into a vector (pcDNA3.1 D/V5-His-TOPO (registered trademark), Invitrogen Japan K. K.). By a conventional method, the vector containing this amplification product was introduced to E. coli (One Shot TOP10 Competent Cells, Invitrogen Corporation) to transform. This transformed E. coli was cultured in an LB agar medium for one day. After the culture, colonies were selected and cultured in an LB liquid medium containing 50 μg/mL of ampicillin. After the culture, the vector was purified using a QIAprep Spin Miniprep Kit (Qiagen K. K.). The base sequence of the insertion site of this vector (SEQ ID NO. 5) was compared with the rat EP1 base sequence (Ptger1) registered as an accession number NM_013100 in well-known database (NCBI), and as a result, they all matched except for a single base. Further, the amino acid sequence translated by the base sequence completely matched the amino acid sequence of the rat EP1 receptor registered as an NCBI accession number NP_037232. Therefore, it was confirmed that the cloned gene sequence was a base sequence of the rat EP1 receptor and the obtained amino acid sequence was that of the rat EP1 receptor. The pcDNA3.1 D/V5-His-TOPO (registered trademark) to which the nucleic acid shown in SEQ ID NO. 5 had been inserted was taken as a rat EP1-expressing vector.
(2) Preparation of Rat EP1 Receptor-Expressing Cells
COS-1 cells (Dainippon Sumitomo Pharma Co., Ltd.) were cultured until it reached confluence in an incubator at 37° C. under a 5% CO2 gas condition, using a D-MEM liquid medium (high glucose and L-glutamine contained, Invitrogen Corporation) to which a penicillin-streptomycin solution (Invitrogen Corporation, final concentration: 100 U/mL as benzylpenicillin; 100 μg/mL as streptomycin) as an antibiotic, MEM nonessential amino acids (Invitrogen Corporation, final Concentration: 0.1 mM), and fetal calf serum (Sanko Junyaku Co., Ltd., final concentration: 10%) were added.
The cells that had reached confluence were stripped with 0.05% trypsin/0.53 mM EDTA 4Na (Invitrogen Japan K. K.) and resuspended in the liquid medium. The resuspended cells were diluted and cultured in the liquid medium at a spread ratio from 1:4 to 1:8.
The cells that had reached confluence were stripped with 0.05% trypsin/0.53 mM EDTA.4Na, and resuspended in a D-MEM liquid medium (high glucose and L-glutamine contained, Invitrogen Corporation) to which an MEM nonessential amino acid (final concentration: 0.1 mM) and fetal calf serum (final concentration: 10%) were added. In each well of a Poly D-lysine-coated 96-well microplate (BD BioCoat (registered trademark), Nippon Becton Dickinson Company, Ltd.), this resuspended cell suspension culture was prepared to be 5×10^4 cells/well in 100 μL of the liquid medium, and seeded thereon. After seeding, the cells were cultured in an incubator at 37° C. under a 5% CO2 gas condition. At a point when the cells for introduction of a rat EP1-expressing vector were adhered (about 2 hours after seeding), introduction of the rat EP1-expressing vector was carried out in the following order.
For introduction of the rat EP1-expressing vector, Lipofectamine 2000 (Invitrogen Japan K. K.) was used. […]

Sequence of rat EP1 receptor (P70597 whole entry): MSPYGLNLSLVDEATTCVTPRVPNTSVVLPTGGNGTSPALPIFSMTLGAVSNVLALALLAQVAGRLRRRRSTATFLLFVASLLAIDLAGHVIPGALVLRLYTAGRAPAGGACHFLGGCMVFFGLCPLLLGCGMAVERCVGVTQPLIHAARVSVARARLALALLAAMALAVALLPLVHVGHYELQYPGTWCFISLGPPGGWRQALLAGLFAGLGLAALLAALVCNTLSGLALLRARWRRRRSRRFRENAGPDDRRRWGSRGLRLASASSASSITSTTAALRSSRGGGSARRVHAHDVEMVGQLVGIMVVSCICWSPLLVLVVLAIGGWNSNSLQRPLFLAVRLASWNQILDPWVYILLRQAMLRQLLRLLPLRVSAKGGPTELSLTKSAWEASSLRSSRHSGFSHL

SMILES	Bladder Contraction Inhibition Rate (%) 15 Minutes (Female SD rats) [%]	Bladder Contraction Inhibition Rate (%) 60 Minutes (Female SD rats) [%]	IC50 (rat EP1 receptor) [µM]
COc1ccc2c(c1)cc(-c1ccccc1)n2Cc1cccc(C(=O)O)n1 [Example 9-21, 6-(5-methoxy-2-phenylindol-1-ylmethyl)pyridine-2-carboxylic acid]	94.5	82.8	0.013
COc1cc2cc(-c3ccccc3)n(Cc3cccc(C(=O)O)n3)c2cc1F [Example 16-15]	85.0	54.9	
